Data as given in US9839632B2, “Methods and compositions using 4-amino-2-(2,6-dioxo-piperidine-3-yl)-isoindoline-1,3-dione for treatment and management of central nervous system cancers” (CELGENE CORPORATION, priority 2013, dated 2017).
Where two headings read alike, the source gives them in different places.

Tests used:
[1] = Blood and brain microdialysis (unbound concentrations) in male CD-IGS rats after single p.o. administration; assay type: in vivo, rat; settings: for Kp / Tmax: rat
Source text: Microdialysis: A total of 3 male CD-IGS rats were used. Stomach-cannulated CD-IGS rats (male, weight range: 250-300 g) supplied by Charles River Laboratories were used in this study. Following surgery, all animals were housed in BASi Raturn® containment systems with standard bedding material. Rat chow and water were available ad libitum, and all animals were kept in an ambient temperature room under a 6 am to 6 pm 12-hour lighting schedule.
Animal surgeries consisted of implanting a CMA/20 14/10PC vascular microdialysis probe (Part #8309571, CMA Microdialysis, North Chelmsford, Mass.) in the jugular vein, according to an IACUC protocol. Each animal was then stereotaxically implanted with an intracerebral guide directed toward the top of the striatum (A/P: 0.7, L/M: −3.0, DN: −3.0; from bregma), according to a rat stereotaxic atlas. Paxinos G. F. K., The mouse brain in stereotaxic coordinates (Academic Press, San Diego, Calif.) (2001). A BASi BR-4 brain microdialysis probe (Part # MD-2204, BASi, West Lafayette, Ind.) was inserted prior to recovery, and the probes were slowly perfused (0.5 μL/min) with either sterile lactated Ringer's (brain) or Dulbecco's phosphate-buffered saline (D-PBS; blood). Animals were allowed to recover for at least 24 hours prior to dosing. On the day of dosing, the blank perfusate was replaced with perfusate containing the probe calibrator, and flow was set to 1.25 μl/min. 4-amino-2-(2,6-dioxo-piperidine-3-yl)-isoindoline-1,3-dione was administered as a single p.o. administration via the stomach cannula, at 50 mg/kg (5 mL/kg) in a 0.5% A carboxymethylcellulose/0.25% Tween® 80 suspension formulation.
Microdialysate was collected in a cooling fraction collector, set at 4° C. (Eicom # EFC-82, EFR-82, Eicom, San Diego, Calif.) at intervals of 25 minutes for 10 hours after dosing. To calculate area-under-the-curve (AUC), the corrected concentration of each sample was multiplied by the interval over which the sample was collected; in this case 25 minutes, and divided by 60 minutes per hour. The sum of these values represented the total AUC value over the specified time range. To generate graphs, the concentration at each time point was plotted at the mid-point of each collection interval. Microdialysates were collected at the specified time points and analyzed for 4-amino-2-(2,6-dioxo-piperidine-3-yl)-isoindoline-1,3-dione concentration using a liquid chromatography-tandem mass spectrometry (LC-MS/MS) assay, within 12 hours. Interim storage was at 4° C.
Mass Spectral Analysis: Microdialysate samples were injected directly into the LC-MS/MS system without processing. Chromatographic separation was achieved using a Phenomenex Synergi C18 column (50×4.6 mm, 4 μm) with gradient elution of 0.1% formic acid in water and 0.1% formic acid in acetonitrile. Detection and quantitation were performed using positive electrospray in multiple reaction-monitoring (“MRM”) modes on a Waters Micromass Ultima tandem mass spectrometer. Transition ions monitored were m/z 274.1 to m/z 84.3 for the analyte and m/z 288.0 to m/z 98.0 for the probe calibrator CC-6032. Calibration was performed using weighted (1/x^2) quadratic regression of peak area. Two calibration curves for 4-amino-2-(2,6-dioxo-piperidine-3-yl)-isoindoline-1,3-dione in PBS and lactated ringers solution were constructed using standards at concentrations of 1.28, 2.56, 5.12, 10.2, 25.6, 64.0, 160, 400, 1000, and 2000 ng/mL. A quadratic regression model with a weighting of 1/(x^2) was used for the regression of calibration curves. Concentrations below the limit of quantitation (“BLOQ”) were treated as zero for calculations.

[2] = fasted male CD-IGS rats, cited from earlier work; for F: PO 50 mg/kg vs IV 5 mg/kg
human monocyte U937 = assay: Polarization of IL4-treated human monocyte U937 (immunofluorescence); assay type: cell-based; settings: U937, IL-4 20 ng/ml 48 hours then 10 ug/ml 48 hours
Procedure: Raji lymphoma cells (ATCC), U937 human monocyte cells (ATCC) and YTS NK cells (a gift from Dr. Pamela A. Becker) were cultured at 37° C. in a humidified incubator under 5% CO2 and 95% air in RPMI-1640 supplemented with 20% FCS and 1% penicillin-streptomycin, and 1% nonessential amino acids.
(§1) Treatments: In experiments in which IL-4 was used to induce M2 polarization of macrophages, cells were treated with IL-4 (20 ng/ml) for 48 hours followed by treatment with 4-amino-2-(2,6-dioxo-piperidine-3-yl)-isoindoline-1,3-dione (10 ug/ml) or DMSO control for 48 hours. In triple cell culture experiments with lymphoma cells, macrophages, and NK cells, the treatment was with either DMSO or 4-amino-2-(2,6-dioxo-piperidine-3-yl)-isoindoline-1,3-dione (10 ug/ml) for 48 hours.
Immunofluorescence for analysis of macrophage polarization in cell culture experiments: Live cells were fixed in 10% formalin for 30 minutes at room temperature followed by permeabilization with PBS-0.2% Triton X-100 for 2 min. […]

[3] = system: primary murine microglia cells cocultured with Raji lymphoma cells; assay: Polarization of primary murine microglia cocultured with Raji lymphoma cells with or without primary murine NK cells; assay type: cell-based; settings: for M2 polarization of microglia cells (FXIIIA, pSTAT6): coculture with Raji lymphoma cells, without NK cells; for polarization status of microglia cells (iNOS, pSTAT1): triple culture with Raji lymphoma cells and primary murine NK cells, 10 ug/ml 48 hours
Procedure: as §1
Immunofluorescence for analysis of macrophage polarization in cell culture experiments: Live cells were fixed in 10% formalin for 30 minutes at room temperature followed by permeabilization with PBS-0.2% Triton X-100 for 2 min. After blocking with PBS-5% goat serum-0.02% Triton X-100 for 30 minutes at 37° C., the cells were incubated overnight at 4° C. with rat monoclonal F4/80 antibody (for primary microglia cells, 1:200 Abcam), rat monoclonal CD11b (for U937, 1:200 Biolegend), rabbit polyclonal Ym1 antibody (for primary microglia cells and primary peritoneal macrophages, 1:200, Stemcell Technologies, Vancouver, Canada), rabbit polyclonal FXIII A antibody (for U937, 1:200, Abcam), mouse monoclonal p-STAT1 antibody (1:200, Abcam), rabbit polyclonal p-STAT6 antibody (1:200, Abcam) or rabbit iNOS antibody (1:200, Calbiochem). After washing, cells were incubated with the Alexa Fluor 594 Goat anti-Rat IgG secondary antibody (1:1000, Life Technologies) and FITC Donkey anti-rabbit IgG secondary antibody (1:1000, Life technology) or FITC Goat anti-mouse IgG secondary antibody (1:1000, Sigma) at 37° C. for 45 minutes. Finally, Vectashield H-1200 mounting medium with DAPI (Vector Laboratories) was used to stain the nuclei. Images were obtained on a Zeiss LSM 510 META confocal microscope.

[4] = microdialysis, male CD-IGS rats, single p.o. 50 mg/kg, n = 3, listed as 4-amino-2-(2,6-dioxo-piperidine-3-yl)-isoindoline-1,3-dione, 50 mg/kg
[5] = microdialysis, male CD-IGS rats, single p.o. 50 mg/kg, n = 3, listed as pomalidomide, 50 mg/kg
[6] = listed as 4-amino-2-(2,6-dioxo-piperidine-3-yl)-isoindoline-1,3-dione

With Nc1cccc2c1C(=O)N(C1CCC(=O)NC1=O)C2=O (stereo not shown) [Pomalidomide, 4-amino-2-(2,6-dioxo-piperidine-3-yl)-isoindoline-1,3-dione] the Kp ([1]; male, CD-IGS, oral, 50 mg/kg, crossed the blood brain barrier, rats, read-out: CNS penetration) was about 0.39, the “AUC(0-10), unbound, Brain” value [1, 4] was 2700 ± 740 ng·h/mL and the “Cmax, unbound, Brain” value [1, 4] was 430 ± 63 ng/mL. The “AUC ratio Brain:Blood (unbound)” value [1, 5] was 0.39 ± 0.03, the “AUC(0-10), unbound, Blood” value [1, 5] was 6800 ± 2000 ng·h/mL and the “AUC(0-10), unbound, Brain” value [1, 5] was 2700 ± 740 ng·h/mL. For the same compound, the “Cmax, unbound, Blood” value [1, 5] was 1100 ± 82 ng/mL, the “Cmax, unbound, Brain” value [1, 5] was 430.0 ± 63 ng/mL and the Tmax ([1]; blood (jugular vein) microdialysate, po, microdialysis, male CD-IGS rats, single p.o. 50 mg/kg, n = 3, read-out: Tmax, unbound, Blood) was 4.6 ± 2.4 h. The Tmax ([1]; brain (striatum) microdialysate, po, microdialysis, male CD-IGS rats, single p.o. 50 mg/kg, n = 3, read-out: Tmax, unbound, Brain) was 4.1 ± 1.5 h, the Kp ([1]; po, microdialysis, male CD-IGS rats, single p.o. 50 mg/kg, n = 3, read-out: AUC ratio Brain:Blood (unbound)) was 0.39 ± 0.03 and the F [2] was 47.4%. For the same compound, the F ([2]; listed as CC-4047) was 47.4 ± 15.2%, the “AUC(0-inf)” value ([2]; single IV 5 mg/kg, n = 5) was 7016 ± 1551 ng·h/mL and the CL ([2]; single IV 5 mg/kg, n = 5) was 12.3 mL/min/kg. The T1/2 ([2]; single IV 5 mg/kg, n = 5) was 2.44 ± 0.8 h, the Vss ([2]; single IV 5 mg/kg, n = 5) was 1.75 L/kg and the “AUC(0-24)” value ([2]; single PO 50 mg/kg, n = 4) was 33155 ± 8561 ng·h/mL. For the same compound, the Cmax ([2]; single PO 50 mg/kg, n = 4) was 3372 ± 758 ng/mL, the Tmax ([2]; single PO 50 mg/kg, n = 4) was 2.0 ± 0.0 h and the “polarization status (FXIII A, pSTAT6 vs iNOS, pSTAT1 expression)” value (human monocyte U937) was “from M2 to M1”. For the same compound, the “M2 polarization of microglia cells (FXIIIA, pSTAT6)” value [3] was “reversed”, the “M2 polarization of microglia cells (FXIIIA, pSTAT6)” value [3, 6] was “M2 polarization was not seen” and the “polarization status of microglia cells (iNOS, pSTAT1)” value [3] was “from M2 to M1”. For the same compound, the “polarization status of microglia cells (iNOS, pSTAT1)” value [3, 6] was “became M1-polarized”.
